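Results reflect a 48-hour exposure of cells in 96-well plates to compound at five concentrations. Abbreviation: GI50, concentration required for 50% inhibition of growth.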 Activity calls are given as the source filed them. Rule as the data show it: active = GI50 up to about 1.1 µM and inactive = higher.
Key:
Experiment in all cases: NCI tumour cell line growth inhibition, 48 h
786-0 = test system: 786-0
A549 = test system: A549
CCRF-CEM = test system: CCRF-CEM
COLO 205 = test system: COLO 205
HCC 2998 = test system: HCC 2998
IGROV-1 = test system: IGROV-1
M14 = test system: M14
MCF7 = test system: MCF7
MOLT-4 = test system: MOLT-4
NCI/ADR-RES = test system: NCI/ADR-RES
OVCAR-8 = test system: OVCAR-8
RPMI-8226 = test system: RPMI-8226
SF-295 = test system: SF-295
SK-MEL-28 = test system: SK-MEL-28
SK-MEL-5 = test system: SK-MEL-5
SK-OV-3 = test system: SK-OV-3
SNB-19 = test system: SNB-19
SR = test system: SR
U-251 = test system: U-251
UACC-62 = test system: UACC-62

| Structure (SMILES) | GI50 (786-0) | GI50 (A549) | GI50 (CCRF-CEM) | GI50 (COLO 205) | GI50 (HCC 2998) | GI50 (IGROV-1) | GI50 (M14) | GI50 (MCF7) | GI50 (MOLT-4) | GI50 (NCI/ADR-RES) | GI50 (OVCAR-8) | GI50 (RPMI-8226) | GI50 (SF-295) | GI50 (SK-MEL-28) | GI50 (SK-MEL-5) | GI50 (SK-OV-3) | GI50 (SNB-19) | GI50 (SR) | GI50 (U-251) | GI50 (UACC-62) |
| --- | --- | --- | --- | --- | --- | --- | --- | --- | --- | --- | --- | --- | --- | --- | --- | --- | --- | --- | --- | --- |
| CCOC(=O)CNc1c(OCc2ccccc2)c(=O)c1=O | > 100 µM (inactive) | > 100 µM (inactive) | > 100 µM (inactive) | > 100 µM (inactive) | > 100 µM (inactive) | > 100 µM (inactive) | > 100 µM (inactive) | > 100 µM (inactive) | > 100 µM (inactive) | > 100 µM (inactive) | > 100 µM (inactive) | > 100 µM (inactive) | > 100 µM (inactive) | > 100 µM (inactive) | > 100 µM (inactive) | > 100 µM (inactive) | > 100 µM (inactive) | > 100 µM (inactive) | > 100 µM (inactive) | > 100 µM (inactive) |
| COC(=O)C1(Cc2cccc(Cl)c2)CCCCCCN1C(=O)c1ccccc1 (stereo not given) | 13.2 µM (inactive) | 14.5 µM (inactive) | 13.1 µM (inactive) | 15.5 µM (inactive) | 13.6 µM (inactive) | 19.1 µM (inactive) | 17.9 µM (inactive) | 13.5 µM (inactive) | 8.89 µM (inactive) | 16.9 µM (inactive) | 16.6 µM (inactive) | 6.7 µM (inactive) | 6.98 µM (inactive) | 14.9 µM (inactive) | 12.8 µM (inactive) | 19.2 µM (inactive) | 15.1 µM (inactive) | 13.9 µM (inactive) | 15.4 µM (inactive) | 11.1 µM (inactive) |
| Cc1cn(C2OC(CO[Si](C)(C)C(C)(C)C)C(N(C)O[Si](C)(C)C(C)(C)C)C2[Se]c2ccccc2)c(=O)[nH]c1=O (stereo not given) | 2.89 µM (inactive) | 4.48 µM (inactive) | 11.8 µM (inactive) | 5.38 µM (inactive) | 0.0325 µM (active) | 8.17 µM (inactive) | 8.3 µM (inactive) | 4.71 µM (inactive) | 3.72 µM (inactive) | 13.2 µM (inactive) | 3.74 µM (inactive) | 3.18 µM (inactive) | 4.15 µM (inactive) | 5.56 µM (inactive) | 4.16 µM (inactive) | 17.4 µM (inactive) | 5.82 µM (inactive) | 9.89 µM (inactive) | 3 µM (inactive) | 8.75 µM (inactive) |
